The test system of this test is male Long Evans rats. Description: Progressive ratio (PR) schedule of reinforcement for food (Progressive Ratio Test, PRT). Details: Sess. Duration: unit not given here. The settings on record: AVG. Format: in vivo, rat. On the procedure: The objective of this study was to test the effect of Compound A (1, 3, or 8 mg/kg, p.o.) on motivation as measured by rats responding for food under a progressive ratio (PR) schedule of reinforcement. Test measures included the total number of lever presses, and number of rewards (food pellets) acquired (break point).
The progressive ratio (PR) task is a cross species translational approach used as measure of motivational performance including as a measure of anhedonia (see, e.g., Hodos W., Science 1961, 134:943-944; Spierling et al., Physiol Behav. 2017, 177:99-106; Radke et al., Pharmacol Biochem Behav. 2015, 129:51-55; Hauser et al., Hormones and Behavior 2009, 56:364-375; Merali et al., Psychopharmacology 2003, 165:413-418; Marchese et al., Int J Neuropsychopharmacology 2013, 16:1611-1621; Karlsson et al., Hippocampus 2018, 28 (7): 512-522: Strauss et al., Schizophr Res. 2016, 170 (1): 198-204; and Gunthorpe et al., Epilepsia 2012, 53 (3): 412-424). In rodent species, the basic test design involves training subjects to lever press for a food reward (45 mg Bioserve pellets) under a schedule in which the number of responses required to achieve a pellet increased for successive reinforcers. The present study used a progression ratio derived from the equation ratio=[5×e^(0.2×reinforcer #)−5], and was as follows: 2, 4, 6, 9, 12, 15, 20, 25, 32, 40, 50, 62, 77, 95, 118, 145, 178, etc. Rats were therefore required to lever press a progressively increasing number of times to gain each successive reward, until reaching a break point, i.e., not meeting the schedule requirement. […] This provided a quantitative measurement of effort the animal would expend for the given reinforcer, which was interpreted as a measure of motivation. Based on the amount of food acquired during a typical test session (e.g., a break point of 10-12, corresponds to 0.45-0.54 g food), responding is limited by the amount of effort the animal is willing to expend for a single food pellet, rather than factors such as satiety.
Rats may be categorized based on differences in PR breakpoint, i.e., “low” and “high” responders. […] Motivational deficits are commonly seen in anhedonia associated with many neuropsychological disorders, such as depression, dementia, and schizophrenia (Lactôt et al., Alzheimer's and Dementia 2017, 13:84-100) and efficacy in treating “low” responder rats is indicative of efficacy in treating more significant or severe anhedonia.
The primary purpose of this proposal was to evaluate the effect of Compound A on motivational performance of Male Long Evans rats under a progressive ratio schedule. A large (N=32) cohort of rats were used and the effect of Compound A was investigated both in all rats, and also a “low” responder subgroup, based on the low tertile (N=11) cohort recorded over 5 days baseline responding prior to study commencement.
Dosage form: Compound A was suspended in 0.5% CMC-Na and 0.1% Tween 80 in purified water and sonicated until fully dissolved. Drug was administered at a volume of 10 mL/kg, orally.
Doses tested: 1, 3, 8 mg/kg.
Pretreatment time: 120 minutes.
Dosage form: D-Amp was suspended in 0.9% saline and sonicated until fully dissolved. Drug was administered at a volume of 1 mL/kg, intraperitoneally.
Pretreatment time: 10 minutes.
Test System: Thirty-two (32) experimentally non-naïve male Long Evans rats were included in the study.
Housing and Management of Test System: Animals were singly housed and maintained on a restricted diet regimen, in which they were fed approximately 18-20 g of standard laboratory chow once per day following the completion of study procedures (between 16:00 h and 18:00 h). Water was available ad-libitum, excluding during training/testing sessions. Animals were maintained on a 12 h/12 h light/dark cycle with all testing conducted during the animals' light cycle. All animal use procedures were performed in accordance with the principles of the Canadian Council on Animal Care (CCAC). […]

The mark [1] stands for this setting: High responder subgroup (N=11), 1 mg/kg p.o.
[2] abbreviates: High responder subgroup (N=11), 3 mg/kg p.o.
Where [3] appears, read: High responder subgroup (N=11), 8 mg/kg p.o.
Where [4] appears, read: Low responder subgroup (N=11), 1 mg/kg p.o.
Where [5] appears, read: Low responder subgroup (N=11), 3 mg/kg p.o.
[6] abbreviates: Low responder subgroup (N=11), 3 mg/kg p.o., listed as Cpmd A.
Setting [7] is: Low responder subgroup (N=11), 8 mg/kg p.o.
[8] abbreviates: Low responder subgroup (N=11), 8 mg/kg p.o., listed as Cpmd A.
[9] abbreviates: all rats (N = 32), 1 mg/kg p.o., 120 min pretreatment.
[10] abbreviates: all rats (N = 32), 3 mg/kg p.o., 120 min pretreatment.
[11] abbreviates: all rats (N = 32), 3 mg/kg p.o., 120 min pretreatment, listed as Cpmd A.
[12] abbreviates: all rats (N = 32), 8 mg/kg p.o., 120 min pretreatment.
The mark [13] stands for this setting: all rats (N = 32), 8 mg/kg p.o., 120 min pretreatment, listed as Cpmd A.
Setting [14] is: High responder subgroup (N=11), 0.6 mg/kg i.p.
[15] abbreviates: Low responder subgroup (N=11), 0.6 mg/kg i.p.
Setting [16] is: all rats (N = 32), 0.6 mg/kg i.p., 10 min pretreatment.

Structures are written as SMILES. “And” between values parts separate entries of the source, which are not always exact repeats. Equal entries are not always repeated. “Also recorded” adds a separate entry of the source.

Turning to `Cc1cc(N2CCc3cc(F)ccc3C2)cc(C)c1NC(=O)CC(C)(C)C` [Compound A, N-[4-(6-fluoro-3,4-dihydro-1H-isoquinolin-2-yl)-2,6-dimethylphenyl]-3,3-dimethylbutanamide], the “Lever Press” value runs as follows: under setting [1], 707.5; under setting [2], 623.9; under setting [3], 700.0; under setting [4], 141.5; under setting [5], “selectively increase; also recorded: statistical significance”; under setting [6], 272.7. Moreover, the “Lever Press” value is listed as “selectively increase; also recorded: statistical significance” under setting [7]; 258.0 under setting [8]; 392.4 under setting [9]; “significant increase; also recorded: significantly increasing; also recorded: statistical significance” under setting [10]; 439.3 under setting [11]; “significant increase; also recorded: significantly increasing; also recorded: statistical significance” under setting [12]. The “Lever Press” value under setting [13] came to 479.8. The “Rewards (break point)” value is 14.6 under setting [1]; 14.3 under setting [2]; 14.6 under setting [3]; 8.2 under setting [4]; “selectively increase; also recorded: statistical significance” under setting [5]; 10.7 under setting [6]. Moreover, the “Rewards (break point)” value under setting [7] is recorded as “selectively increase; also recorded: statistical significance”; the “Rewards (break point)” value under setting [8] is recorded as 10.5; the “Rewards (break point)” value under setting [9] turned out to be 11.5; the “Rewards (break point)” value under setting [10] is “significant increase; also recorded: significantly increasing; also recorded: statistical significance”; the “Rewards (break point)” value under setting [11] worked out at 12.5; the “Rewards (break point)” value under setting [12] was “significant increase; also recorded: significantly increasing; also recorded: statistical significance”. The “Rewards (break point)” value under setting [13] was 12.8. The “Sess. Duration” value turned out to be 21.2 under setting [1]; 24.3 under setting [2]; 20.8 under setting [3]; 15.5 under setting [4]; 23.2 under setting [5]; 22.6 under setting [7]. Further, the “Sess. Duration” value under setting [9] is reported as 16.9, the “Sess. Duration” value under setting [10] amounted to 22.6 and the “Sess. Duration” value under setting [12] was 21.1.

For `C[C@H](N)Cc1ccccc1` [D-Amphetamine, reference compound], the “Rewards (break point)” value by setting is: under setting [14], 17.5±0.9 and 17.5; under setting [15], 12.2±1.2 and 12.2; under setting [16], 14.7 ± 0.7 and 14.7. For the same compound, the “Sess. Duration” value runs as follows: under setting [14], 52.4; under setting [15], 44.5; under setting [16], 44.8. Besides, the “Lever Press” value under setting [16] is 893+131 and 893.0.

The values are drawn from US12171759B1, “Methods and uses for treating anhedonia” (Xenon Pharmaceuticals Inc., priority 2021, dated 2024).
